{
  "source": "ChEMBL document CHEMBL2434921",
  "about": "“New synthetic aliphatic sulfonamido-quaternary ammonium salts as anticancer chemotherapeutic agents” (2013)",
  "key": {"NCI-H23 [1]": {"tested_on": "NCI-H23", "experiment": "Growth of human NCI-H23 cells at 10 uM after 48 hrs by SRB assay", "conditions": "NCI-H23, 48 h"}, "MDA-MB-231 [2]": {"tested_on": "MDA-MB-231", "experiment": "Growth of human MDA-MB-231 cells at 0.1 uM after 48 hrs by SRB assay", "conditions": "MDA-MB-231, 48 h"}, "MDA-MB-231 [3]": {"tested_on": "MDA-MB-231", "experiment": "Growth inhibition of human MDA-MB-231 cells at 0.3 uM after 48 hrs by SRB assay; values are per cent of control", "conditions": "MDA-MB-231, 48 h"}, "ACHN [4]": {"tested_on": "ACHN", "experiment": "Growth of human ACHN cells at 0.3 uM after 48 hrs by SRB assay"}, "NUGC-3 [5]": {"tested_on": "NUGC-3", "experiment": "Growth inhibition of human NUGC3 cells at 10 uM after 48 hrs by SRB assay; values are per cent of control", "conditions": "NUGC-3, 48 h"}, "HCT-15 [6]": {"tested_on": "HCT-15", "experiment": "Growth inhibition of human HCT15 cells after 48 hrs by SRB assay", "assay_type": "functional", "conditions": "HCT-15, 48 h"}, "PC-3 [7]": {"tested_on": "PC-3", "experiment": "Growth inhibition of human PC3 cells at 0.1 uM after 48 hrs by SRB assay; values are per cent of control", "conditions": "PC-3, 48 h"}, "ACHN [8]": {"tested_on": "ACHN", "experiment": "Growth inhibition of human ACHN cells at 3 uM after 48 hrs by SRB assay; values are per cent of control"}, "HCT-15 [9]": {"tested_on": "HCT-15", "experiment": "Growth of human HCT15 cells at 3 uM after 48 hrs by SRB assay", "conditions": "HCT-15, 48 h"}, "ACHN [10]": {"tested_on": "ACHN", "experiment": "Growth inhibition of human ACHN cells at 1 uM after 48 hrs by SRB assay; values are per cent of control"}, "[11]": {"target": "Rho-related GTP-binding protein RhoB (Homo sapiens) (UniProt P62745)", "sequence (P62745 whole entry)": "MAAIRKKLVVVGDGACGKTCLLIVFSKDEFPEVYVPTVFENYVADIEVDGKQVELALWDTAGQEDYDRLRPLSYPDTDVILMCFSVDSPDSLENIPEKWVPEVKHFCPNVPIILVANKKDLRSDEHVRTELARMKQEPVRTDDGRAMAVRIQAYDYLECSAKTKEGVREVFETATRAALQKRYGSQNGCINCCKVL", "experiment": "Transactivation of RhoB (unknown origin) transfected in human HeLa cells at 5 uM measured over 10 secs by dual luciferase reporter gene assay", "assay_type": "cell-based"}, "PC-3 [12]": {"tested_on": "PC-3", "experiment": "Growth inhibition of human PC3 cells at 0.3 uM after 48 hrs by SRB assay; values are per cent of control", "conditions": "PC-3, 48 h"}, "NUGC-3 [13]": {"tested_on": "NUGC-3", "experiment": "Growth inhibition of human NUGC3 cells after 48 hrs by SRB assay", "assay_type": "functional", "conditions": "NUGC-3, 48 h"}, "MDA-MB-231 [14]": {"tested_on": "MDA-MB-231", "experiment": "Growth inhibition of human MDA-MB-231 cells after 48 hrs by SRB assay", "assay_type": "functional", "conditions": "MDA-MB-231, 48 h"}, "MDA-MB-231 [15]": {"tested_on": "MDA-MB-231", "experiment": "Growth of human MDA-MB-231 cells at 1 uM after 48 hrs by SRB assay", "conditions": "MDA-MB-231, 48 h"}, "HCT-15 [16]": {"tested_on": "HCT-15", "experiment": "Growth of human HCT15 cells at 0.3 uM after 48 hrs by SRB assay", "conditions": "HCT-15, 48 h"}, "NUGC-3 [17]": {"tested_on": "NUGC-3", "experiment": "Growth of human NUGC3 cells at 0.3 uM after 48 hrs by SRB assay", "conditions": "NUGC-3, 48 h"}, "NCI-H23 [18]": {"tested_on": "NCI-H23", "experiment": "Growth inhibition of human NCI-H23 cells at 0.1 uM after 48 hrs by SRB assay; values are per cent of control", "conditions": "NCI-H23, 48 h"}, "NUGC-3 [19]": {"tested_on": "NUGC-3", "experiment": "Growth of human NUGC3 cells at 0.1 uM after 48 hrs by SRB assay", "conditions": "NUGC-3, 48 h"}, "PC-3 [20]": {"tested_on": "PC-3", "experiment": "Growth inhibition of human PC3 cells at 1 uM after 48 hrs by SRB assay; values are per cent of control", "conditions": "PC-3, 48 h"}, "MDA-MB-231 [21]": {"tested_on": "MDA-MB-231", "experiment": "Growth of human MDA-MB-231 cells at 10 uM after 48 hrs by SRB assay", "conditions": "MDA-MB-231, 48 h"}, "HCT-15 [22]": {"tested_on": "HCT-15", "experiment": "Growth inhibition of human HCT15 cells at 1 uM after 48 hrs by SRB assay; values are per cent of control", "conditions": "HCT-15, 48 h"}, "PC-3 [23]": {"tested_on": "PC-3", "experiment": "Growth inhibition of human PC3 cells at 3 uM after 48 hrs by SRB assay; values are per cent of control", "conditions": "PC-3, 48 h"}, "NCI-H23 [24]": {"tested_on": "NCI-H23", "experiment": "Growth of human NCI-H23 cells at 0.3 uM after 48 hrs by SRB assay", "conditions": "NCI-H23, 48 h"}, "ACHN [25]": {"tested_on": "ACHN", "experiment": "Growth of human ACHN cells at 0.1 uM after 48 hrs by SRB assay"}, "NUGC-3 [26]": {"tested_on": "NUGC-3", "experiment": "Growth of human NUGC3 cells at 1 uM after 48 hrs by SRB assay", "conditions": "NUGC-3, 48 h"}, "NUGC-3 [27]": {"tested_on": "NUGC-3", "experiment": "Growth inhibition of human NUGC3 cells at 3 uM after 48 hrs by SRB assay; values are per cent of control", "conditions": "NUGC-3, 48 h"}, "NCI-H23 [28]": {"tested_on": "NCI-H23", "experiment": "Growth inhibition of human NCI-H23 cells at 1 uM after 48 hrs by SRB assay; values are per cent of control", "conditions": "NCI-H23, 48 h"}, "PC-3 [29]": {"tested_on": "PC-3", "experiment": "Growth inhibition of human PC3 cells after 48 hrs by SRB assay", "assay_type": "functional", "conditions": "PC-3, 48 h"}, "HCT-15 [30]": {"tested_on": "HCT-15", "experiment": "Growth inhibition of human HCT15 cells at 0.1 uM after 48 hrs by SRB assay; values are per cent of control", "conditions": "HCT-15, 48 h"}, "HCT-15 [31]": {"tested_on": "HCT-15", "experiment": "Growth inhibition of human HCT15 cells at 10 uM after 48 hrs by SRB assay; values are per cent of control", "conditions": "HCT-15, 48 h"}, "NCI-H23 [32]": {"tested_on": "NCI-H23", "experiment": "Growth inhibition of human NCI-H23 cells at 3 uM after 48 hrs by SRB assay; values are per cent of control", "conditions": "NCI-H23, 48 h"}, "ACHN [33]": {"tested_on": "ACHN", "experiment": "Growth of human ACHN cells at 10 uM after 48 hrs by SRB assay"}, "ACHN [34]": {"tested_on": "ACHN", "experiment": "Growth inhibition of human ACHN cells after 48 hrs by SRB assay", "assay_type": "functional"}, "PC-3 [35]": {"tested_on": "PC-3", "experiment": "Growth of human PC3 cells at 10 uM after 48 hrs by SRB assay", "conditions": "PC-3, 48 h"}, "NCI-H23 [36]": {"tested_on": "NCI-H23", "experiment": "Growth inhibition of human NCI-H23 cells after 48 hrs by SRB assay", "assay_type": "functional", "conditions": "NCI-H23, 48 h"}, "MDA-MB-231 [37]": {"tested_on": "MDA-MB-231", "experiment": "Growth of human MDA-MB-231 cells at 3 uM after 48 hrs by SRB assay; values are per cent of control", "conditions": "MDA-MB-231, 48 h"}},
  "note": "Calls of active or inactive are those of the source. The rule behind the calls is not given here.",
  "data": [
    {"smiles": "CCCCCCCCCCCCCCS(=O)(=O)NCC(C)(C)C[N+](C)(C)C", "values": [
      {"measurement": "growth, % of control at 10 µM", "setting": "NCI-H23 [1]", "result": -30.5, "unit": "%"},
      {"measurement": "growth, % of control at 0.1 µM", "setting": "MDA-MB-231 [2]", "result": 94.3, "unit": "%"},
      {"measurement": "growth, % of control at 0.3 µM", "setting": "MDA-MB-231 [3]", "result": 88.5, "unit": "%"},
      {"measurement": "growth, % of control at 0.3 µM", "setting": "ACHN [4]", "result": 84.8, "unit": "%"},
      {"measurement": "growth, % of control at 10 µM", "setting": "NUGC-3 [5]", "result": -8.2, "unit": "%"},
      {"measurement": "GI50", "setting": "HCT-15 [6]", "result": 1700, "unit": "nM"},
      {"measurement": "growth, % of control at 0.1 µM", "setting": "PC-3 [7]", "result": 76.1, "unit": "%"},
      {"measurement": "growth, % of control at 3 µM", "setting": "ACHN [8]", "result": 57.1, "unit": "%"},
      {"measurement": "growth, % of control at 3 µM", "setting": "HCT-15 [9]", "result": 48.2, "unit": "%"},
      {"measurement": "growth, % of control at 1 µM", "setting": "ACHN [10]", "result": 79.4, "unit": "%"},
      {"measurement": "Activity", "setting": "[11]", "result": "Active"},
      {"measurement": "growth, % of control at 0.3 µM", "setting": "PC-3 [12]", "result": 73.8, "unit": "%"},
      {"measurement": "GI50", "setting": "NUGC-3 [13]", "result": 320, "unit": "nM"},
      {"measurement": "GI50", "setting": "MDA-MB-231 [14]", "result": 2110, "unit": "nM"},
      {"measurement": "growth, % of control at 1 µM", "setting": "MDA-MB-231 [15]", "result": 77.6, "unit": "%"},
      {"measurement": "growth, % of control at 0.3 µM", "setting": "HCT-15 [16]", "result": 94.3, "unit": "%"},
      {"measurement": "growth, % of control at 0.3 µM", "setting": "NUGC-3 [17]", "result": 75.5, "unit": "%"},
      {"measurement": "growth, % of control at 0.1 µM", "setting": "NCI-H23 [18]", "result": 88.5, "unit": "%"},
      {"measurement": "growth, % of control at 0.1 µM", "setting": "NUGC-3 [19]", "result": 81.8, "unit": "%"},
      {"measurement": "growth, % of control at 1 µM", "setting": "PC-3 [20]", "result": 46, "unit": "%"},
      {"measurement": "growth, % of control at 10 µM", "setting": "MDA-MB-231 [21]", "result": 31, "unit": "%"},
      {"measurement": "growth, % of control at 1 µM", "setting": "HCT-15 [22]", "result": 89.2, "unit": "%"},
      {"measurement": "growth, % of control at 3 µM", "setting": "PC-3 [23]", "result": 9.8, "unit": "%"},
      {"measurement": "growth, % of control at 0.3 µM", "setting": "NCI-H23 [24]", "result": 76.8, "unit": "%"},
      {"measurement": "growth, % of control at 0.1 µM", "setting": "ACHN [25]", "result": 91.3, "unit": "%"},
      {"measurement": "growth, % of control at 1 µM", "setting": "NUGC-3 [26]", "result": 35.9, "unit": "%"},
      {"measurement": "growth, % of control at 3 µM", "setting": "NUGC-3 [27]", "result": 8.9, "unit": "%"},
      {"measurement": "growth, % of control at 1 µM", "setting": "NCI-H23 [28]", "result": 31.4, "unit": "%"},
      {"measurement": "GI50", "setting": "PC-3 [29]", "result": 350, "unit": "nM"},
      {"measurement": "growth, % of control at 0.1 µM", "setting": "HCT-15 [30]", "result": 98.1, "unit": "%"},
      {"measurement": "growth, % of control at 10 µM", "setting": "HCT-15 [31]", "result": 19.4, "unit": "%"},
      {"measurement": "growth, % of control at 3 µM", "setting": "NCI-H23 [32]", "result": 1.5, "unit": "%"},
      {"measurement": "growth, % of control at 10 µM", "setting": "ACHN [33]", "result": 37.4, "unit": "%"},
      {"measurement": "GI50", "setting": "ACHN [34]", "result": 2600, "unit": "nM"},
      {"measurement": "growth, % of control at 10 µM", "setting": "PC-3 [35]", "result": -0.3, "unit": "%"},
      {"measurement": "GI50", "setting": "NCI-H23 [36]", "result": 310, "unit": "nM"},
      {"measurement": "growth, % of control at 3 µM", "setting": "MDA-MB-231 [37]", "result": 55.9, "unit": "%"}
    ]}
  ]
}
